Measurements taken from US10668034B2, “Pharmaceutical compositions and the treatment of overactive bladder” (Velicept Therapeutics, Inc., priority 2010, dated 2020).
pEC50: −log10 of the molar value. Like-named read-outs stand apart in the source and are kept apart here.

What was measured:
[1] = tested on: urinary bladder strips from rats; test: EFS-induced contractions of rat urinary bladder strips (Example 2); format: cell-based; conditions: for pEC50: EFS-induced contractions, read-out: EC50 for inhibiting bladder contraction
Method: In order to investigate a possible pharmacological synergy on the combination of the muscarinic and the beta receptor pathways, the combination of the muscarinic antagonist oxybutynin and the beta-3 adrenoceptor agonist CL-316,243 (a very selective and potent rodent β3-AR agonist) was tested on EFS (electrical field stimulation)-induced responses in urinary bladder strips from rats.
Longitudinal strips of rat detrusor muscle were suspended in organ bath chambers containing oxygenated Krebs solution (pH 7.4, gassed with 95% O2 and 5% CO2 at 37° C.). Prazosin (1 μM) was added to the Krebs solution in order to block al-adrenoceptors. Bladder responses were measured using isometric transducers and recorded using a data acquisition system. Tissues were allowed to equilibrate under a resting tension of 1.0 g for 60 min. Following the equilibration period, strips were exposed to KCl (80 mM) to measure their viability. Tissues were washed and equilibrated for another 45 min period. Bladder strips were then subjected to EFS using the following parameters: maximal current 800 mA, frequency of 15 Hz, square pulse of 0.1 ms, trains of 4 s every 2 min. After approximately 15 min (when EFS contractions had stabilized), the selective β2-adrenoceptor antagonist ICI-118551 (30 nM) was incubated for 15 min. After stabilization of the contractile response, a concentration response curve was obtained for each bladder strip by adding CL-316,243 or oxybutynin (1 nM to 10 μM) (or corresponding vehicle) in log unit concentration increments.
In a second series of experiments, a single concentration of oxybutynin at 10 nM (determined from the first series of experiments) was added to organ bath chambers followed by various doses of CL-316,243 to provide a concentration-response curve for CL-316,243.

[2] = tested on: isolated rat urinary bladder strips; test: EFS-induced contractions of rat isolated urinary bladder strips, beta-3 agonist with or without 10 nM antimuscarinic (Example 3); format: cell-based
Method: In this study various combinations of β3-adrenoceptor agonists and antimuscarinics were tested in isolated rat urinary bladder strips. Urinary bladder smooth muscle strips were obtained from female rats (Sprague-Dawley strain, body weight 240-360 g). Two strips per bladder were prepared and connected to tension transducers in 5 ml organ baths containing Krebs-Henseleit solution (kept at 37° C., pH 7.4, gassed with 95% O2/5% CO2). Prazosin (1 μM) was added to the Krebs solution in order to block al-adrenoceptors. Strips were equilibrated for at least 60 min at 1.0 g resting tension, during which tissues were washed every 15 min. Then, each strip was exposed to 80 mM KCl to verify its viability. After another 45 min wash-out period, strips were subjected to EFS (electrical field stimulation parameters: constant current 800 mA; frequency of 15 Hz; square pulse of 0.1 ms, train of 4 s every 2 min). […] Cumulative concentrations of solabegron (10 nM-10 μM), mirabegron (10 nM-10 μM) and CL-316,243 (1 nM-10 μM) were then added in half-log increments. At the end of CRC's, 10 μM forskolin (FSK) was added to determine maximal relaxation (FIG. 1). […] Each CRC was fit using non-linear regression (GraphPad Prism® software) to obtain Emax and pIC50 (−log IC50) values. Mean CRCs for vehicle and treated strips were fit in parallel and statistically compared. The first fit was used to compare Emax values and when these values were not statistically different, a second fit was performed, sharing Emax, in order to obtain pIC50 values for each pair of curves. Differences were considered statistically significant when the null hypothesis could be rejected at a risk a of less than 0.05.

[3] = tested on: muscarinic receptor subtypes M1, M2, M3, M4 and M5; conditions: cited from earlier work
[4] = Drug interaction study, post void residual (PVR) volume by bladder ultrasound; format: in vivo, human
Method: A drug interaction study was conducted in healthy human volunteers, using repeat oral doses of solabegron and oxybutynin administered singly as well as in combination with each other, in order to assess the effects on pharmacokinetic and pharmacodynamic parameters, as measured by post void residual (PVR) volumes. PVR was measured in subjects treated with each agent alone as well as in combination at steady-state. The study was a two-cohort randomized, open label, repeat dose, 3-way crossover study in healthy adult subjects. Two marketed formulations of oxybutynin were used in the study: i) Ditropan IR®, which is immediate release (IR) oxybutynin; and ii) Ditropan XL® which is extended release (XL) oxybutynin. The total daily dose given was 20 mg. Solabegron was administered as tablets. […] Each study session was separated by a washout period of at least 5 days. Safety assessments included vital signs, ambulatory blood pressure monitoring (ABPM) physical examinations, clinical laboratory safety tests, 12-lead ECGs, PVR volume, to assess the potential for urinary retention, and adverse events. […] Bladder ultrasound scans to measure PVR volumes were conducted on Day-1 (one day prior to the dosing period) and Day 6 (sixth day of the dosing period) of each study session.

[5] = in the presence of oxybutynin (10 nM)
[6] = in the presence of 10 nM oxybutynin
[7] = in the presence of 10 nM tolterodine
[8] = in the presence of 10 nM solifenacin

| IC50 of beta-3 agonist vs vehicle (in words) [2, 6] | IC50 of beta-3 agonist vs vehicle (in words) [2, 7] | Compound | Emax of beta-3 agonist vs vehicle (in words) [2, 6] | Emax of beta-3 agonist vs vehicle (in words) [2, 7] | Discrimination between M3 and M1/M4 subtypes (in words) [3] | Selectivity for M3 over the M2/M5 subtypes [3] | also measured |
| --- | --- | --- | --- | --- | --- | --- | --- |
| significantly lower | significantly lower | Nc1nc(CC(=O)Nc2ccc(CCNC[C@H](O)c3ccccc3)cc2)cs1 [mirabegron] |  | appeared to be increased |  |  | IC50 of beta-3 agonist vs vehicle (in words) [2, 8]: significantly lower |
|  |  | CCN(CC)CC#CCOC(=O)C(O)(c1ccccc1)C1CCCCC1 (stereo not shown) [oxybutynin, 4-diethylaminobut-2-ynyl 2-cyclohexyl-2-hydroxy-2-phenyl-ethanoate] |  |  | do not distinguish | ~10 fold | Effect of oxybutynin alone on EFS-induced responses (in words) ([1]; oxybutynin at a concentration of 10 nM, first series of experiments): minimal contraction |
| significantly lower | significantly lower | O=C(O)c1cccc(-c2cccc(NCCNC[C@H](O)c3cccc(Cl)c3)c2)c1 [solabegron, 3′-[(2-{[(2R)-2-(3-chlorophenyl)-2-hydroxyethyl]amino}ethyl)amino]biphenyl-3-carboxylic acid] | significantly increased | significantly increased |  |  | Mean increase from baseline in PVR volume ([4]; healthy human subjects, repeat oral doses for 5 days, Day 6 vs Day-1, solabegron 200 mg BID, oxybutynin IR 5 mg QID, oxybutynin XL 10 mg BID): 4.4 mL; Changes in PVR volume (in words) ([4]; healthy subjects): minimal changes; Emax of beta-3 agonist vs vehicle (in words) [2, 8]: significantly increased |
|  |  | O=C(O[C@H]1CN2CCC1CC2)N1CCc2ccccc2[C@@H]1c1ccccc1 [solifenacin] |  |  | do not distinguish | ~10 fold |  |
|  |  | Cc1ccc(O)c([C@H](CCN(C(C)C)C(C)C)c2ccccc2)c1 [tolterodine] |  |  |  |  | Discrimination between the five muscarinic subtypes (in words) [3]: does not discriminate between the five subtypes |

| Compound | IC50 of beta-3 agonist vs vehicle (in words) [2, 6] | IC50 of beta-3 agonist vs vehicle (in words) [2, 7] | Emax of beta-3 agonist vs vehicle (in words) [2, 6] | Emax of beta-3 agonist vs vehicle (in words) [2, 7] | Discrimination between M3 and M1/M4 subtypes (in words) [3] | Selectivity for M3 over the M2/M5 subtypes [3] | also measured |
| --- | --- | --- | --- | --- | --- | --- | --- |
| C[C@H](Cc1ccc2c(c1)OC(C(=O)[O-])(C(=O)[O-])O2)NC[C@H](O)c1cccc(Cl)c1.[Na+].[Na+] [CL-316,243] | significantly decreased |  | significantly increased | significantly increased |  |  | Maximal inhibition of EFS-induced contractions ([1]; CL-316,243 alone): 65%; pEC50 ([1]; CL-316,243 alone): 8.14; Shift to the left of concentration-response curve ([1]; in the presence of a minimally effective dose of oxybutynin (10 nM)): ~3.5 fold; Maximal inhibition of EFS-induced contractions [1, 5]: 80%; pEC50 [1, 5]: 8.68 |
